Test results published in ChEMBL document CHEMBL3286119, “Biarylmethoxy Nicotinamides As Novel and Specific Inhibitors of Mycobacterium tuberculosis” (ACS Med Chem Lett, 2014).
Calls of active or inactive are those of the source.

Experiments:
Format in all cases: functional, organism-based
[1] = tested on: Mycobacterium tuberculosis; assay: Antimicrobial activity against streptomycin-resistant Mycobacterium tuberculosis ATCC 35820 after 2 to 3 weeks
[2] = tested on: Mycobacterium tuberculosis; assay: Antimicrobial activity against isoniazid-resistant Mycobacterium tuberculosis ATCC 35822 after 2 to 3 weeks
[3] = tested on: Mycobacterium tuberculosis; assay: Antimicrobial activity against rifampicin-resistant Mycobacterium tuberculosis 19000 after 2 to 3 weeks
[4] = tested on: Mycobacterium tuberculosis; assay: Antimicrobial activity against ethionamide-resistant Mycobacterium tuberculosis 1700 after 2 to 3 weeks

Measured: Activity

COCCOc1ccc(-c2ccc(COc3ncccc3C(N)=O)nc2)c(C)c1
active: all assays above

CC(C)OCCOc1ccc(-c2cnc(COc3ncccc3C(N)=O)nc2)c(Cl)c1
active: all assays above

NC(=O)c1cccnc1OCc1ncc(-c2ccc(OCCCF)cc2Cl)cn1
active: all assays above
